Earlier results on one molecule are cited in patent US20040176366A1, “Method of preventing or treating atherosclerosis or restenosis” (priority 2002, published 2004).

The series concerns CMV. The note with it: rats, prophylaxis.

For `Nc1nc(O)c2ncn(COC(CO)CO)c2n1` [Ganciclovir], the “prevention of atherosclerosis resulting from CMV infection” value is recorded as “prevent atherosclerosis resulting from CMV infection of rats”.
